Data on three molecules can be found in ChEMBL document CHEMBL1126577, “Studies of the synthesis, immunology, and cytotoxicity of a cyclic octapeptide corresponding to TNF-alpha-(59-66)” (1993).

The species entered for experiment [1] is Homo sapiens. Nature of the experiment: Tested for induction of interleukin-1 production from human monocyte of 1x 10 e5 cells at 10 ug/mL. The format is functional.
The species entered for experiment [2] is Homo sapiens. Nature of the experiment: Tested for induction of interleukin-1 production from human peripheral blood mononuclear cell (PBMC) of 2x10 e6 cells at 1 ug/mL. The class given is functional.
The test system of experiment [3] is HeLa. Description: Tested for cytotoxicity index against HeLa cell line by MTT method at 0.1 ug/mL concentration. The format is functional, Homo sapiens.
Experiment [4] concerns HEp-2. Description: Tested for cytotoxicity index against HEP-2 cell line by MTT method at 1.0 ug/mL concentration. The format is functional, Homo sapiens. In general terms: Tetrazolium assays rely on reduction of a dye to a coloured formazan, in cell work by metabolically active cells.
Experiment [5] deals with HeLa. Nature of the experiment: Tested for cytotoxicity index against HeLa cell line by MTT method at 1.0 ug/mL concentration. The class given is functional, Homo sapiens.
Experiment [6] relates to HEp-2. Description: Tested for cytotoxicity index against HEP-2 cell line by MTT method at 0.1 ug/mL concentration. The format is functional, Homo sapiens.
The species named for experiment [7] is Homo sapiens. Description: Tested for induction of interleukin-1 from human peripheral blood mononuclear cell (PBMC) of 2x10 e6 cells at 1 ug/mL. The format is functional.

Bridge positions count the residues as written; N and C are the ends. Peptide text beside a SMILES is read from it.

For `CC(C)C[C@@H]1NC(=O)[C@H](CCC(N)=O)NC(=O)[C@@H](N)CC(=O)NCCCC[C@@H](C(=O)NCC(=O)O)NC(=O)[C@H](CO)NC1=O` (H-DQLSKG-OH; lactam 1-5), the IL-1 production in experiment [1] was 1047 pg/mL; in experiment [2] it was 579 pg/mL.
Regarding `COc1cccc2c1C(=O)c1c(O)c3c(c(O)c1C2=O)C[C@@](O)(C(=O)CO)C[C@@H]3O[C@H]1C[C@H](N)[C@H](O)[C@H](C)O1` [DOXORUBICIN], the Cytotoxicity index stood at 50.6 in experiment [3], 75.5 in experiment [4], 96.6 in experiment [5] and 39 in experiment [6].
The molecule H-KGDRLS-OH [TNF-ALPHA] yielded an IL-1 production in experiment [7] of 741 pg/mL.
